# According to PubChem BioAssay (NCI):
#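 Test compounds were applied to cells in 96-well plates for 48 hours at 5 doses. The concentration for 50% growth inhibition is given as GI50. TGI marks complete inhibition of growth.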
# What was measured:
# Experiment in all cases: NCI tumour cell line growth inhibition, 48 h
# TK-10 renal = tested on: TK-10 renal
# SW-620 colon = tested on: SW-620 colon
# M14 melanoma = tested on: M14 melanoma
# MDA-MB-435 = tested on: MDA-MB-435
# CCRF-CEM leukemia = tested on: CCRF-CEM leukemia
# NCI-H460 lung = tested on: NCI-H460 lung
# MALME-3M melanoma = tested on: MALME-3M melanoma
# SK-OV-3 ovarian = tested on: SK-OV-3 ovarian
# U251 CNS = tested on: U251 CNS
# HCT-116 colon = tested on: HCT-116 colon
SMILES,GI50 (TK-10 renal),TGI (TK-10 renal),GI50 (SW-620 colon),TGI (SW-620 colon),GI50 (M14 melanoma),TGI (M14 melanoma),GI50 (MDA-MB-435),TGI (MDA-MB-435),GI50 (CCRF-CEM leukemia),TGI (CCRF-CEM leukemia),GI50 (NCI-H460 lung),TGI (NCI-H460 lung),GI50 (MALME-3M melanoma),TGI (MALME-3M melanoma),GI50 (SK-OV-3 ovarian),TGI (SK-OV-3 ovarian),GI50 (U251 CNS),TGI (U251 CNS),GI50 (HCT-116 colon),TGI (HCT-116 colon)
C[C@@H](CO)[C@@H]1CCC=C2CC[C@]3(C)[C@H](CC[C@@H]4[C@@]5(C)CCCNC(C)(C)[C@@H]5CC[C@]43C)[C@H]21,8.36 µM,24.8 µM,1.86 µM,3.62 µM,2.31 µM,5.13 µM,1.76 µM,3.53 µM,3.08 µM,13.9 µM,1.81 µM,3.39 µM,1.71 µM,3.36 µM,12.8 µM,30.8 µM,1.84 µM,3.46 µM,–,–
COc1cc2c(cc1C)NC(=O)/C2=C\c1cccc(Oc2ccccc2)c1,23.3 µM,50.6 µM,16.1 µM,32.9 µM,16.6 µM,31 µM,11.8 µM,25.9 µM,6.85 µM,24.5 µM,12.9 µM,27.2 µM,26.1 µM,44.6 µM,22.3 µM,40.9 µM,12.4 µM,24.9 µM,7.88 µM,20.4 µM
COc1cc(Nc2ccnc(NCCCNc3ccnc4cc(Cl)ccc34)n2)cc(OC)c1,1.81 µM,3.63 µM,1.28 µM,2.78 µM,1.7 µM,3.46 µM,1.51 µM,2.88 µM,1.19 µM,3.88 µM,1.46 µM,3.77 µM,2.02 µM,3.86 µM,2.42 µM,6.08 µM,1.38 µM,2.75 µM,0.842 µM,2.73 µM
CCN(C(=O)c1cc(F)ccc1Oc1cncnc1N1CC2(CCN(CC3CCC(NS(=O)(=O)CC)CC3)CC2)C1)C(C)C (centres undefined),> 100 µM,> 100 µM,> 100 µM,> 100 µM,> 100 µM,> 100 µM,> 100 µM,> 100 µM,> 100 µM,> 100 µM,> 100 µM,> 100 µM,> 100 µM,> 100 µM,> 100 µM,> 100 µM,> 100 µM,> 100 µM,> 100 µM,> 100 µM
Nc1nc(-c2ccccc2)nc(N)c1N=O,4.68 µM,14.8 µM,2 µM,5.77 µM,5.68 µM,19.5 µM,4.57 µM,51.9 µM,5.8 µM,> 100 µM,8.02 µM,27.9 µM,6.71 µM,22.9 µM,11.9 µM,26 µM,5.13 µM,17.9 µM,4.12 µM,17.8 µM
Cc1cccc2c(=O)c3c(sc12)c(NCCNCCO)nc1ccccc13,–,–,1.45 µM,3.01 µM,1.68 µM,3.37 µM,1.75 µM,3.25 µM,1.85 µM,3.73 µM,1.19 µM,2.64 µM,1.65 µM,3.18 µM,–,–,1.56 µM,3.09 µM,1.35 µM,2.72 µM
